Reference: patent publication US20250092066A1, “SUBSTITUTED BICYCLIC HETEROCYCLES AS MALT-1 INHIBITORS” (AURIGENE ONCOLOGY LIMITED, priority 2022, published 2025)

Target: MALT-1 (Isoform1) (Homo sapiens (Human), UniProt Q9UDY8)
Test: Biochemical fluorescent assay of MALT-1 (Isoform1) enzyme inhibition
Settings: recombinant MALT-1 (Isoform1); for inhibition at 1 µM: read-out: Percent Inhibition (@ 1 μM); for IC50: 50 μM AC-LRSR-MAC substrate, 240 min
Method: The potency of compounds to inhibit MALT-1 (Isoform1) enzyme was tested in a Fluorescent assay using recombinant MALT-1 (Isoform1, aa-840) generated in-house. The assay buffer was 50 mM HEPES (pH 7.5), 100 mM NaCl, 10 mM DTT, 1 mM EDTA, 0.9 M sodium citrate, 0.01% CHAPS. 1.5 nM of MALT-1 enzyme was incubated with various concentrations of test compounds ([…]) (1% DMSO) in the presence of buffer for 30 minutes at 30° C. The protease reaction was initiated by adding 50 μM of AC-LRSR-MAC (Peptide International, USA) substrate and incubated for 240 min. After 240 min incubation, fluorescence emission of the samples at 460 nm was measured at an excitation of 355 nm. The percent inhibition was calculated using the following formula: […]. IC50 values were determined by fitting the dose-response data to sigmoidal curve fitting equation using Graph pad prism software VS.

Chain of MALT-1 (Isoform1) (Q9UDY8 whole entry, canonical isoform): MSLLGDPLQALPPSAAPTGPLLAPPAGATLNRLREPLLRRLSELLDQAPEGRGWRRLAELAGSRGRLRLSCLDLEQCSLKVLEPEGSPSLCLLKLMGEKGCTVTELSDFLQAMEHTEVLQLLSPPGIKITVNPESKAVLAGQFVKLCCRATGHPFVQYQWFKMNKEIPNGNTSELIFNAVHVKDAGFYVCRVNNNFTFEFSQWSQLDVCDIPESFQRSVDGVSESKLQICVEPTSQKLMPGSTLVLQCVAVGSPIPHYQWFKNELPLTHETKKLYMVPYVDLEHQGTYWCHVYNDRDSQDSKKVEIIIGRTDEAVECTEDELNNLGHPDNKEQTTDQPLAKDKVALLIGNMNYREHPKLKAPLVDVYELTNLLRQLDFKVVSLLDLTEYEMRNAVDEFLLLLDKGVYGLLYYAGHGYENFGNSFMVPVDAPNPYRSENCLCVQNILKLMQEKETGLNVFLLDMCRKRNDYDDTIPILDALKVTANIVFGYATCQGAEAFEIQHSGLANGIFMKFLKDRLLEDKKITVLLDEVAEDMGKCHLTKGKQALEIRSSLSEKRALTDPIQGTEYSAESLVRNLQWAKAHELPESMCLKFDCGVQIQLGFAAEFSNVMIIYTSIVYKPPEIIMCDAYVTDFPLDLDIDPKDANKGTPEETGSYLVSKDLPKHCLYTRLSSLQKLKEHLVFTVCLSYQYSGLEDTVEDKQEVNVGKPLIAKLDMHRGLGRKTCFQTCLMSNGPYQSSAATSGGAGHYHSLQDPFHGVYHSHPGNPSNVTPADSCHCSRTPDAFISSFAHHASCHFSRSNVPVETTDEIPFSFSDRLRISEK

`CO[C@@H](C)c1c(NC(=O)Nc2cc(F)c3nc(C)cn3c2)cnc2cc(Cl)nn12` [Example 41] was tested, and the inhibition at 1 µM (compound at 1 μM) was 69% and the IC50 was > 250 nM.
With `CO[C@@H](C)c1c(NC(=O)Nc2cc(Cl)c3nc(C(C)C)nn3c2)cnc2cc(Cl)nn12` [Example 7] the inhibition at 1 µM (compound at 1 μM) was 96% and the IC50 was < 50 nM.
For `CO[C@@H](C)c1c(NC(=O)Nc2cc(Cl)c3nc(C)nn3c2)cnc2cc(Cl)nn12` [Example 5], the inhibition at 1 µM (compound at 1 μM) was 98% and the IC50 was < 50 nM.
Work on `CO[C@@H](C)c1c(NC(=O)Nc2cc(F)c3nc(C)nn3c2)cnc2cc(F)nn12` [Example 24] yielded an inhibition at 1 µM (compound at 1 μM) of 80% and an IC50 of 51 to 250 nM.
`CO[C@@H](C)c1c(NC(=O)Nc2cc(Cl)c3nc(C(F)(F)F)nn3c2)cnc2cc(Cl)nn12` [Example 8] was tested, and the inhibition at 1 µM (compound at 1 μM) was 94% and the IC50 was < 50 nM.
With `CO[C@@H](C)c1c(NC(=O)Nc2ccc3nncn3c2)cnc2cc(Cl)nn12` [Example 20] the inhibition at 1 µM (compound at 1 μM) was 16% and the IC50 was > 250 nM.
`CO[C@@H](C)c1c(NC(=O)Nc2cc(F)c3ncc(C)n3c2)cnc2cc(Cl)nn12` [Example 44] showed an inhibition at 1 µM (compound at 1 μM) of 90% and an IC50 of 51 to 250 nM.
In the case of `COc1cc(NC(=O)Nc2cnc3cc(Cl)nn3c2[C@H](C)OC)cn2nc(C)nc12` [Example 10], the inhibition at 1 µM (compound at 1 μM) is reported as 38% and the IC50 is reported as > 250 nM.
`CO[C@@H](C)c1c(NC(=O)Nc2cc(F)c3nc(C(=O)N4CCCC4)nn3c2)cnc2cc(Cl)nn12` [Example 48] was tested, and the inhibition at 1 µM (compound at 1 μM) was 86% and the IC50 was 51 to 250 nM.
`Cc1nc2c(F)cc(NC(=O)Nc3cnc4cc(Cl)nn4c3C3CC3)cn2n1` [Example 15] gave an inhibition at 1 µM (compound at 1 μM) of 79% and an IC50 of 51 to 250 nM.
With `CO[C@@H](C)c1c(NC(=O)Nc2cc(F)c3nc(C)nn3c2)cnc2cc(Cl)nn12` [Example 9] the inhibition at 1 µM (compound at 1 μM) was 92% and the IC50 was < 50 nM.
`COC(C)c1c(NC(=O)Nc2cc(F)c3nc(C)nn3c2)cnc2sc(C)nc12` (centres unmarked) [Example 39, 1-(8-fluoro-2-methyl-[1,2,4]triazolo[1,5-a]pyridin-6-yl)-3-(7-(1-methoxyethyl)-2-methylthiazolo[5,4-b]pyridin-6-yl)urea] was tested, and the inhibition at 1 µM (compound at 1 μM) was 77% and the IC50 was > 250 nM.
In the case of `COC(c1c(NC(=O)Nc2cc(F)c3nc(C)nn3c2)cnc2cc(Cl)nn12)C(C)C` (racemic) [Example 31, 1-(2-chloro-7-(1-methoxy-2-methylpropyl)pyrazolo[1,5-a]pyrimidin-6-yl)-3-(8-fluoro-2-methyl-[1,2,4]triazolo[1,5-a]pyridin-6-yl)urea], the inhibition at 1 µM (compound at 1 μM) is reported as 100% and the IC50 is reported as < 50 nM.
For `COC(c1c(NC(=O)Nc2cc(F)c3nc(C)nn3c2)cnc2cc(Cl)nn12)C1CC1` (single isomer, unassigned) [Example 32b, 1-(2-chloro-7-(cyclopropyl(methoxy)methyl)pyrazolo[1,5-a]pyrimidin-6-yl)-3-(8-fluoro-2-methyl-[1,2,4]triazolo[1,5-a]pyridin-6-yl)urea], the “Percent Inhibition (@ 1 μM)” value (compound at 1 μM) was 99% and the IC50 was < 50 nM.
For `CO[C@@H](C)c1c(NC(=O)Nc2cc(F)c3ncnn3c2)cnc2cc(C(F)(F)F)nn12` [Example 27], the inhibition at 1 µM (compound at 1 μM) was 87% and the IC50 was 51 to 250 nM.
`CO[C@@H](C)c1c(NC(=O)Nc2cc(F)c3nccn3c2)cnc2cc(Cl)nn12` [Example 43] gave an inhibition at 1 µM (compound at 1 μM) of 86% and an IC50 of 51 to 250 nM.
